Measured values as given in PMC5849406 (Pharmacological research, 2017).
Where “and” joins values, the source holds several entries; their conditions need not be identical. Equal values may be shown once. Read-outs that look alike come from different tables or passages of the source. Marks after values point to notes of the source that are not given here.

What was measured:
hCB1Rs [1] = experiment: Biased hCB1R signaling: ΔΔlog; design: species or system human; conditions: CHO-β2-hCB1, reference CP-55,940; for GTPγS / β-Arrestin 2 (Operational) Bias Factor: 10^ΔΔlog(τ/KA); for AC / β-Arrestin 2 (Competitive) ΔΔLog(τ/KA) / AC / β-Arrestin 2 (Operational) ΔΔLog(τ/KA) / GTPγS / β-Arrestin 2 (Competitive) ΔΔLog(τ/KA) / GTPγS / β-Arrestin 2 (Operational) ΔΔLog(τ/KA): 95% confidence interval in parentheses
NIH-Swiss mice = experiment: In vivo cannabinoid tetrad; design: species or system mouse
hCB1Rs [2] = target: T1, hCB1Rs (Homo sapiens, UniProt P21554); type: cell-based; conditions: for β-Arrestin 2 Assay (Operational) ΔLog(τ/KA): normalized to reference CP-55,940; for β-Arrestin 2 Assay (Operational) Log(τ/KA): operational model; for β-Arrestin 2 Assay EMAX / β-Arrestin 2 Assay pEC50 / EC50: CHO-β2-hCB1 cells; for β-Arrestin 2 Assay EMAX: 90 min, fraction of the effect produced by the reference agonist CP-55,940; for β-Arrestin 2 Assay pEC50 / EC50: 90 min incubation; for EC50: read-out: β-Arrestin 2 Assay EC50
hCB1Rs [3] = target: T1, hCB1Rs; experiment: Forskolin-stimulated intracellular cAMP levels; type: cell-based; conditions: for cAMP Assay Log(τ/KA): Black-Leff operational model; for cAMP Assay pIC50 / cAMP Assay IMAX / IC50: intact CHO-β2-hCB1 cells; for cAMP Assay pIC50 / IC50: 10 µM forskolin; for cAMP Assay IMAX: fraction of the effect produced by the reference agonist CP-55,940; for IC50: read-out: cAMP Assay IC50
hCB1Rs [4] = target: T1, hCB1Rs; type: binding; conditions: 0.2 nM [^3H]-CP55,940; for ^3H-CP-55,940 Binding pKi: mean ± S.E.M.; for Ki: read-out: ^3H-CP-55,940 Binding Ki
hCB1Rs [5] = target: T1, hCB1Rs; experiment: [^35S]GTPγS binding; type: biochemical; conditions: for ^35S-GTPγS Binding Assay ΔLog(τ/KA): CHO-β2-hCB1, normalized to reference CP-55,940, 95% CI printed in the cell; for ^35S-GTPγS Binding Assay EMAX: fraction of the effect produced by the reference agonist CP-55,940; for EC50: read-out: ^35S-GTPγS Binding Assay EC50
hCB1 and hCB2Rs = conditions: ref [29]; cited from earlier work
hCB1Rs [6] = target: T1, hCB1Rs; experiment: CB1 receptor down-regulation after chronic drug exposure; type: cell-based
hCB1Rs [7] = target: T1, hCB1Rs; experiment: CB1 receptor desensitization after chronic drug exposure; type: cell-based; conditions: CHO-hCB1-Rx cells; at 1 hr; CP-55,940 10^−7 M or PNR-4-20 10^−5 M
[8] = CHO-β2-hCB1, 95% CI printed in the cell

T1 sequence (P21554 whole entry): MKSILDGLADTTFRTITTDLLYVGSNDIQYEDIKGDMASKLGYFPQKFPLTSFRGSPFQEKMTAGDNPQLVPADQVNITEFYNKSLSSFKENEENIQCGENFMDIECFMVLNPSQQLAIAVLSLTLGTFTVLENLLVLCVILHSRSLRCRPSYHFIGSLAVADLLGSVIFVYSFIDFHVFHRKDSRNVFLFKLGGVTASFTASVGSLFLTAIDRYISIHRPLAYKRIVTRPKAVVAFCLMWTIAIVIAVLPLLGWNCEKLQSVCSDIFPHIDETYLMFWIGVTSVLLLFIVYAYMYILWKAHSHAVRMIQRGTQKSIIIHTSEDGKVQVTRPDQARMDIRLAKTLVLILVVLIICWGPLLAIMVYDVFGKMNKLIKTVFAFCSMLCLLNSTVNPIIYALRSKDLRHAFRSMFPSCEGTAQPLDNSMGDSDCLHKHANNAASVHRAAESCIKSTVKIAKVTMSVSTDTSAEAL

SMILES | AC / β-Arrestin 2 (Competitive) Bias Factor (hCB1Rs [1]) | AC / β-Arrestin 2 (Operational) Bias Factor (hCB1Rs [1]) | GTPγS / β-Arrestin 2 (Competitive) Bias Factor (hCB1Rs [1]) | GTPγS / β-Arrestin 2 (Operational) Bias Factor (hCB1Rs [1]) | AC / β-Arrestin 2 (Competitive) ΔΔLog(τ/KA) (hCB1Rs [1]) | AC / β-Arrestin 2 (Operational) ΔΔLog(τ/KA) (hCB1Rs [1]) | GTPγS / β-Arrestin 2 (Competitive) ΔΔLog(τ/KA) (hCB1Rs [1]) | GTPγS / β-Arrestin 2 (Operational) ΔΔLog(τ/KA) (hCB1Rs [1]) | β-Arrestin 2 Assay (Operational) ΔLog(τ/KA) (hCB1Rs [2]; [8]) | β-Arrestin 2 Assay (Operational) Log(τ/KA) (hCB1Rs [2]; [8]) | β-Arrestin 2 Assay EMAX (hCB1Rs [2]) | β-Arrestin 2 Assay pEC50 (hCB1Rs [2]) | EC50 (hCB1Rs [2]) [nM] | cAMP Assay Log(τ/KA) (hCB1Rs [3]; [8]) | cAMP Assay pIC50 (hCB1Rs [3]) | cAMP Assay IMAX (hCB1Rs [3]) | IC50 (hCB1Rs [3]) [nM] | ^3H-CP-55,940 Binding pKi (hCB1Rs [4]; CHO-β2-hCB1 membranes) | ^35S-GTPγS Binding Assay ΔLog(τ/KA) (hCB1Rs [5]) | ^35S-GTPγS Binding Assay pEC50 (hCB1Rs [5]; CHO-β2-hCB1 membranes) | also measured
CCCCCCC(C)(C)c1ccc([C@@H]2C[C@H](O)CC[C@H]2CCCO)c(O)c1 [CP-55,940] | 1.00 | 1.00 | 1.00 | 1.0 | 0.0 | 0.0 | 0.0 | 0.0 | – | – | – | – | – | – | – | – | – | – | – | – | –
Cc1c(C(=O)NN2CCCCC2)nn(-c2ccc(Cl)cc2Cl)c1-c1ccc(Cl)cc1 [rimonabant, reference compound] | – | – | – | – | – | – | – | – | – | – | – | – | – | – | – | – | – | – | – | – | reversal of PNR-4-20 tetrad effects by co-administered antagonist (NIH-Swiss mice; rimonabant 10 mg/kg with 100 mg/kg PNR-4-20, i.p., mice): significant reversal of the effects of PNR-4-20 on rectal temperature and catalepsy
O=C1/C(=C/c2cn(Cc3ccc(F)cc3)c3ccccc23)N2CCC1CC2 [PNR-4-20] | 13.5 | 29.5 | 2.5 | 5.4 | 1.13 (0.7 to 1.56) | 1.47 (0.93 to 2.00) | 0.40 (0.09 to 0.89) | 0.73 (0.09 to 1.36) | −2.72^b (−3.33 to −2.10) | 4.37^b (3.82 to 4.93) | 0.24 ± 0.02 fractional units | 5.28±0.06^b | 5410 | 6.45^c (6.02 to 6.88) | 6.97±0.34^a,c | 1.26±0.10^a | 180 | 6.83±0.03^b | −1.99^b (−2.54 to −1.43) | 7.29±0.09^b | β-Arrestin 2 Assay (Competitive) Log(τ/KA) (hCB1Rs [2]; CHO-β2-hCB1, competitive operational model, 95% CI printed in the cell): 4.84^b (4.53 to 5.16); β-Arrestin 2 Assay EMAX (hCB1Rs [2]; listed as PNR-420): 0.24±0.02^b fractional units; effect on β-arrestin 2 recruitment produced by CP-55,940 (co-incubation) (hCB1Rs [2]; CP-55,940 10^−7 M, test ligand 10^−7 to 10^−4 M): decreased; cAMP Assay ΔLog(τ/KA) (hCB1Rs [3]; CHO-β2-hCB1, normalized to reference CP-55,940, 95% CI printed in the cell): −1.25^c (−1.58 to −0.93); ^3H-CP-55,940 Binding pKi (hCB1Rs [4]; CHO-hCB1-Rx membranes): 7.11±0.13; Ki (hCB1Rs [4]; CHO-hCB1-Rx membranes): 85.1 nM; Ki (hCB1Rs [4]; CHO-β2-hCB1 membranes): 159 nM; activity in the cannabinoid tetrad (NIH-Swiss mice; NIH-Swiss mice, 10, 30, or 100 mg/kg i.p., assessed 35 min after injection): exhibits activity consistent with that of a CB1R agonist in all four measures of the cannabinoid tetrad; time of peak hypothermic effects after injection (NIH-Swiss mice; mice, radiotelemetry pilot studies, 5-min intervals, data not shown): 35 min; ^35S-GTPγS Binding Assay pEC50 (hCB1Rs [5]; CHO-hCB1-Rx membranes): 6.89±0.09; ^35S-GTPγS Binding Assay EMAX (hCB1Rs [5]; CHO-β2-hCB1 membranes): 1.02 ± 0.10 fractional units; ^35S-GTPγS Binding Assay EMAX (hCB1Rs [5]; CHO-β2-hCB1 membranes, listed as PNR-420): 1.02±0.10^a fractional units; EC50 (hCB1Rs [5]; CHO-hCB1-Rx membranes): 130 nM; EC50 (hCB1Rs [5]; CHO-β2-hCB1 membranes): 53.9 nM; selectivity of binding between hCB1 and hCB2Rs (hCB1 and hCB2Rs): bind relatively non-selectively to hCB1 and hCB2Rs; effect of chronic exposure on KD of [^3H]-CP-55,940 (hCB1Rs [6]; 10 hr exposure, data not shown): does not alter the KD of [^3H]-CP-55,940; reduction in binding (hCB1R density) (hCB1Rs [6]; CHO-hCB1-Rx cells, 10 hrs exposure, PNR-4-20 10^−5 M): 42.2 ± 1.7%; maximal reduction of hCB1R density (hCB1Rs [6]; CHO-hCB1-Rx cells, PNR-4-20 10^−5 M, 0 to 10 hrs): 76.4 ± 3.6%; maximal reduction of CB1R density (hCB1Rs [6]; CHO-β2-hCB1 cells, at 2 hrs, CP-55,940 10^−7 M or PNR-4-20 10^−5 M): 39.7 ± 4.9%; maximal reduction of G protein activation by CP-55,940 (10^−7 M) (hCB1Rs [7]): 46.0 ± 5.8%
CCCCCn1cc(C(=O)c2cccc3ccccc23)c2ccccc21 [JWH-018, reference compound] | – | 0.21 | – | 2.0 | – | – | – | 0.30 (−0.20 to 0.81) | 0.18^a (−0.15 to 0.51) | 7.27^a (7.20 to 7.34) | 1.16 ± 0.16 fractional units and 1.16±0.16^a fractional units | 7.17±0.08^a | 78.1 | 8.56^b (8.17 to 8.94) | 8.82±0.15^b | 0.90±0.05^a | 1.73 | 9.12±0.06^a | −0.12^a (−0.69 to −0.45) | 9.25±0.23^a | CB1R bias between G protein-dependent and β-arrestin 2 signaling (in words) (hCB1Rs [1]): little CB1R bias; ^35S-GTPγS Binding Assay EMAX (hCB1Rs [5]; CHO-β2-hCB1 membranes): 1.02 ± 0.10 fractional units and 1.02±0.10^a fractional units; EC50 (hCB1Rs [5]; CHO-β2-hCB1 membranes): 0.749 nM
